Experimental data reported in patent publication US20240109917A1 (ACTELION PHARMACEUTICALS LTD, priority 2020, published 2024).

Target: VEGFR2, unphosphorylated (Homo sapiens (Human), UniProt P35968)
Test: VEGFR ADP GLO Assay
Type: biochemical

Chain of VEGFR2, unphosphorylated (P35968 20-1356): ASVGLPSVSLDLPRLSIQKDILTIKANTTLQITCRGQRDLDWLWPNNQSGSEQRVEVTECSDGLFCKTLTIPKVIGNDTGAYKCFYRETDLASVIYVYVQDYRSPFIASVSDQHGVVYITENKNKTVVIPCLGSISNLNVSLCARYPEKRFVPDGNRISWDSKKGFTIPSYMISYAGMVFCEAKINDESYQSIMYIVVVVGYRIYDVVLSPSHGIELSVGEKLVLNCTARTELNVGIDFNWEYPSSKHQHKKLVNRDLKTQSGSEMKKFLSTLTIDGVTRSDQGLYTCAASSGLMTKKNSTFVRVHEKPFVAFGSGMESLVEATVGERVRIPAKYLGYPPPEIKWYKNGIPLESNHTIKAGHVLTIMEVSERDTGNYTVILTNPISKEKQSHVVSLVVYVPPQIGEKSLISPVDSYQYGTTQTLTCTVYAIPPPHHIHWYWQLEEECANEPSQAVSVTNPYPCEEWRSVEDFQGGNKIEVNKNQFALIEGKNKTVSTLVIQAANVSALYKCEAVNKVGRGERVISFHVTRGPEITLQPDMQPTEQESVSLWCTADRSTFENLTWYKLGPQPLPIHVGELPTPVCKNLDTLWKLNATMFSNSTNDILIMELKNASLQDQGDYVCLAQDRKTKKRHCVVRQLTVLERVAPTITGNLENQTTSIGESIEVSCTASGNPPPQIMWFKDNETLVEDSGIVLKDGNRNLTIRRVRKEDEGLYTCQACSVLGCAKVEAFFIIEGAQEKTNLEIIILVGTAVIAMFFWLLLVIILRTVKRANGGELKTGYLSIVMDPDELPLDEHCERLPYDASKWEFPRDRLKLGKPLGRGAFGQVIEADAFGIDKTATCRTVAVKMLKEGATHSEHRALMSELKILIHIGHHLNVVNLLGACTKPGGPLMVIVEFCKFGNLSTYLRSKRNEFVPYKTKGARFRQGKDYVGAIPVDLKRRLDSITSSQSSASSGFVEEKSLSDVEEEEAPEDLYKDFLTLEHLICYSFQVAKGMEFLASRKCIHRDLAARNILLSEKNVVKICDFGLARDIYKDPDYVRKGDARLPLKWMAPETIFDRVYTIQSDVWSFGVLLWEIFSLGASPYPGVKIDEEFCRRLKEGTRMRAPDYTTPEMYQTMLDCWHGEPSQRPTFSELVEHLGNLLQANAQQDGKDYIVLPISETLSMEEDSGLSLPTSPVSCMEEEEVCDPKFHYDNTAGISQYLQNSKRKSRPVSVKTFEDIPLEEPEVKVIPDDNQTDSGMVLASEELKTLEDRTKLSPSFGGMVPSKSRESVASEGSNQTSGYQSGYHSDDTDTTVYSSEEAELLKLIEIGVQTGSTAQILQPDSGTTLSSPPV

Row | SMILES | IC50 [µM]
1 | Cc1ncc(NC(=O)CN2CCC[C@H]2C)cc1NC(=O)c1cnn2cc(-c3nn(C)nc3C)sc12 [Example 443, (R)-2-(2,5-dimethyl-2H-1,2,3-triazol-4-yl)-N-(2-methyl-5-(2-(2-methylpyrrolidin-1-yl)acetamido)pyridin-3-yl)pyrazolo[5,1-b]thiazole-7-carboxamide] | > 7.5
2 | Cc1ncc(NC(=O)CN2CCCC2(C)C)cc1NC(=O)c1cnn2cc(-c3cn(C)nc3C)sc12 [Example 444, 2-(1,3-Dimethyl-1H-pyrazol-4-yl)-N-(5-(2-(2,2-dimethylpyrrolidin-1-yl)acetamido)-2-methylpyridin-3-yl)pyrazolo[5,1-b]thiazole-7-carboxamide] | > 7.5
3 | Cc1ncc(NC(=O)CN2CC(C)(C)C2)cc1NC(=O)c1cnn2cc(-c3nn(C)nc3C)sc12 [Example 445, 2-(2,5-Dimethyl-2H-1,2,3-triazol-4-yl)-N-(5-(2-(3,3-dimethylazetidin-1-yl)acetamido)-2-methylpyridin-3-yl)pyrazolo[5,1-b]thiazole-7-carboxamide] | > 7.5
4 | Cc1ncc(NC(=O)CN2CCC(C)C2)cc1NC(=O)c1cnn2cc(-c3cn(C)nc3C)sc12 (stereo not drawn) [Example 446, 2-(1,3-Dimethyl-1H-pyrazol-4-yl)-N-(2-methyl-5-(2-(3-methylpyrrolidin-1-yl)acetamido)pyridin-3-yl)pyrazolo[5,1-b]thiazole-7-carboxamide] | > 7.5
5 | Cc1ncc(NC(=O)CN2CCCC2(C)C)cc1NC(=O)c1cnn2cc(-c3cnn(CCO)c3)sc12 [Example 447, N-(5-(2-(2,2-dimethylpyrrolidin-1-yl)acetamido)-2-methylpyridin-3-yl)-2-(1-(2-hydroxyethyl)-1H-pyrazol-4-yl)pyrazolo[5,1-b]thiazole-7-carboxamide] | > 7.5
6 | Cc1ncc(NC(=O)CN2CCCC2(C)C)cc1NC(=O)c1cnn2cc(-c3cccnc3OCCF)sc12 [Example 448, N-(5-(2-(2,2-dimethylpyrrolidin-1-yl)acetamido)-2-methylpyridin-3-yl)-2-(2-(2-fluoroethoxy)pyridin-3-yl)pyrazolo[5,1-b]thiazole-7-carboxamide] | > 7.5
7 | Cc1ncc(NC(=O)CN2CCCC2(C)C)cc1NC(=O)c1cnn2cc(-c3cccn(CCF)c3=O)sc12 [Example 449, N-(5-(2-(2,2-dimethylpyrrolidin-1-yl)acetamido)-2-methylpyridin-3-yl)-2-(1-(2-fluoroethyl)-2-oxo-1,2-dihydropyridin-3-yl)pyrazolo[5,1-b]thiazole-7-carboxamide] | > 7.5
8 | Cc1ncc(C(=O)NCCN2CCCC2(C)C)cc1NC(=O)c1cnn2cc(-c3cnn4c3COCC4)sc12 [Example 450, 2-(6,7-dihydro-4H-pyrazolo[5,1-c][1,4]oxazin-3-yl)-N-(5-((2-(2,2-dimethylpyrrolidin-1-yl)ethyl)carbamoyl)-2-methylpyridin-3-yl)pyrazolo[5,1-b]thiazole-7-carboxamide] | > 7.5
9 | COCCn1cc(-c2cn3ncc(C(=O)Nc4cc(NC(=O)C[C@@H]5CCCN5C(C)C)cnc4C)c3s2)cn1 [Example 451, (S)—N-(5-(2-(1-isopropylpyrrolidin-2-yl)acetamido)-2-methylpyridin-3-yl)-2-(1-(2-methoxyethyl)-1H-pyrazol-4-yl)pyrazolo[5,1-b]thiazole-7-carboxamide] | > 7.5
10 | COCCn1cc(-c2cn3ncc(C(=O)Nc4cc(NC(=O)C5(CN6CCC[C@@H]6C)CC5)cnc4C)c3s2)cn1 [Example 452, (S)-2-(1-(2-methoxyethyl)-1H-pyrazol-4-yl)-N-(2-methyl-5-(1-((2-methylpyrrolidin-1-yl)methyl)cyclopropanecarboxamido)pyridin-3-yl)pyrazolo[5,1-b]thiazole-7-carboxamide] | > 7.5
11 | Cc1ncc(NC(=O)CNCC2CC2)cc1NC(=O)c1cnn2cc(-c3cnn4c3OCCC4)sc12 [Example 453, N-(5-(2-((cyclopropylmethyl)amino)acetamido)-2-methylpyridin-3-yl)-2-(6,7-dihydro-5H-pyrazolo[5,1-b][1,3]oxazin-3-yl)pyrazolo[5,1-b]thiazole-7-carboxamide] | > 7.5
12 | Cc1ncc(NC(=O)CNCC2CC2)cc1NC(=O)c1cnn2cc(-c3cnn4c3CCC4)sc12 [Example 454, N-(5-(2-((cyclopropylmethyl)amino)acetamido)-2-methylpyridin-3-yl)-2-(5,6-dihydro-4H-pyrrolo[1,2-b]pyrazol-3-yl)pyrazolo[5,1-b]thiazole-7-carboxamide] | > 7.5
13 | CCCNCC(=O)Nc1cnc(C)c(NC(=O)c2cnn3cc(-c4cnn5c4OCCC5)sc23)c1 [Example 455, 2-(6,7-dihydro-5H-pyrazolo[5,1-b][1,3]oxazin-3-yl)-N-(2-methyl-5-(2-(propylamino)acetamido)pyridin-3-yl)pyrazolo[5,1-b]thiazole-7-carboxamide] | > 7.5
14 | CCCNCC(=O)Nc1cnc(C)c(NC(=O)c2cnn3cc(-c4cnn5c4CCC5)sc23)c1 [Example 456, 2-(5,6-dihydro-4H-pyrrolo[1,2-b]pyrazol-3-yl)-N-(2-methyl-5-(2-(propylamino)acetamido)pyridin-3-yl)pyrazolo[5,1-b]thiazole-7-carboxamide] | > 7.5
15 | Cc1ncc(NC(=O)CN2CCCC2(C)C)cc1NC(=O)c1cnn2cc(-c3cnn(C(C)(C)CO)c3)sc12 [Example 457, N-(5-(2-(2,2-dimethylpyrrolidin-1-yl)acetamido)-2-methylpyridin-3-yl)-2-(1-(1-hydroxy-2-methylpropan-2-yl)-1H-pyrazol-4-yl)pyrazolo[5,1-b]thiazole-7-carboxamide] | > 7.5
16 | Cc1ncc(NC(=O)CN2CCCC2(C)C)cc1NC(=O)c1cnn2cc(-c3cnn4c3COCC4)sc12 [Example 458, 2-(6,7-dihydro-4H-pyrazolo[5,1-c][1,4]oxazin-3-yl)-N-(5-(2-(2,2-dimethylpyrrolidin-1-yl)acetamido)-2-methylpyridin-3-yl)pyrazolo[5,1-b]thiazole-7-carboxamide] | > 7.5
17 | Cc1ncc(C(=O)NCCN2CC3CCC2CC3)cc1NC(=O)c1cnn2cc(-c3cnn4c3COCC4)sc12 [Example 459, N-(5-((2-(2-azabicyclo[2.2.2]octan-2-yl)ethyl)carbamoyl)-2-methylpyridin-3-yl)-2-(6,7-dihydro-4H-pyrazolo[5,1-c][1,4]oxazin-3-yl)pyrazolo[5,1-b]thiazole-7-carboxamide] | > 7.5
18 | Cc1ncc(C(=O)NCCN2CCCC2(C)C)cc1NC(=O)c1cnn2cc(-c3cnn4c3OCCC4)sc12 [Example 460, 2-(6,7-dihydro-5H-pyrazolo[5,1-b][1,3]oxazin-3-yl)-N-(5-((2-(2,2-dimethylpyrrolidin-1-yl)ethyl)carbamoyl)-2-methylpyridin-3-yl)pyrazolo[5,1-b]thiazole-7-carboxamide] | > 7.5
19 | Cc1ncc(C(=O)NCCN2CCCC23CCC3)cc1NC(=O)c1cnn2cc(-c3cnn4c3CCC4)sc12 [Example 461, N-(5-((2-(5-azaspiro[3.4]octan-5-yl)ethyl)carbamoyl)-2-methylpyridin-3-yl)-2-(5,6-dihydro-4H-pyrrolo[1,2-b]pyrazol-3-yl)pyrazolo[5,1-b]thiazole-7-carboxamide] | 3.35
20 | COCCn1cc(-c2cn3ncc(C(=O)Nc4cc(NC(=O)CCC5CCCN5C)cnc4C)c3s2)cn1 (stereo not drawn) [Example 462, 2-(1-(2-methoxyethyl)-1H-pyrazol-4-yl)-N-(2-methyl-5-(3-(1-methylpyrrolidin-2-yl)propanamido)pyridin-3-yl)pyrazolo[5,1-b]thiazole-7-carboxamide] | > 7.5
21 | COCCn1cc(-c2cn3ncc(C(=O)Nc4cc(NC(=O)CCC5CCCN5C(C)C)cnc4C)c3s2)cn1 (stereo not drawn) [Example 463, N-(5-(3-(1-isopropylpyrrolidin-2-yl)propanamido)-2-methylpyridin-3-yl)-2-(1-(2-methoxyethyl)-1H-pyrazol-4-yl)pyrazolo[5,1-b]thiazole-7-carboxamide] | > 7.5
22 | Cc1ncc(NC(=O)C[C@@H]2CCN(C(C)C)C2)cc1NC(=O)c1cnn2cc(-c3cnn(C)c3)sc12 [Example 464, (S)—N-(5-(2-(1-isopropylpyrrolidin-3-yl)acetamido)-2-methylpyridin-3-yl)-2-(1-methyl-1H-pyrazol-4-yl)pyrazolo[5,1-b]thiazole-7-carboxamide] | > 7.5
23 | Cc1ncc(NC(=O)C[C@H]2CCN(C(C)C)C2)cc1NC(=O)c1cnn2cc(-c3cnn(C)c3)sc12 [Example 465, (R)—N-(5-(2-(1-isopropylpyrrolidin-3-yl)acetamido)-2-methylpyridin-3-yl)-2-(1-methyl-1H-pyrazol-4-yl)pyrazolo[5,1-b]thiazole-7-carboxamide] | > 7.5
24 | COCCn1cc(-c2cn3ncc(C(=O)Nc4cc(NC(=O)C[C@@H]5CCN(C(C)C)C5)cnc4C)c3s2)cn1 [Example 466, (S)—N-(5-(2-(1-isopropylpyrrolidin-3-yl)acetamido)-2-methylpyridin-3-yl)-2-(1-(2-methoxyethyl)-1H-pyrazol-4-yl)pyrazolo[5,1-b]thiazole-7-carboxamide] | > 7.5
25 | COCCn1cc(-c2cn3ncc(C(=O)Nc4cc(NC(=O)CN5CCC5C(C)C)cnc4C)c3s2)cn1 (stereo not drawn) [Example 467, N-(5-(2-(2-isopropylazetidin-1-yl)acetamido)-2-methylpyridin-3-yl)-2-(1-(2-methoxyethyl)-1H-pyrazol-4-yl)pyrazolo[5,1-b]thiazole-7-carboxamide] | > 7.5
26 | Cc1ncc(NC(=O)CC2CN(C)C2)cc1NC(=O)c1cnn2cc(-c3cnn4c3CCC4)sc12 [Example 468, 2-(5,6-dihydro-4H-pyrrolo[1,2-b]pyrazol-3-yl)-N-(2-methyl-5-(2-(1-methylazetidin-3-yl)acetamido)pyridin-3-yl)pyrazolo[5,1-b]thiazole-7-carboxamide] | > 7.5
27 | Cc1ncc(C(=O)NCC2CCCN2C)cc1NC(=O)c1cnn2cc(-c3cnn4c3CCC4)sc12 (stereo not drawn) [Example 469, 2-(5,6-dihydro-4H-pyrrolo[1,2-b]pyrazol-3-yl)-N-(2-methyl-5-(((1-methylpyrrolidin-2-yl)methyl)carbamoyl)pyridin-3-yl)pyrazolo[5,1-b]thiazole-7-carboxamide] | > 7.5
